Test results reported in US11981729B2, “Method” (Agency for Science, Technology and Research, priority 2020, dated 2024).

Columns and labels:
NIH3T3vSrc cells [1] = experiment: ECM degradation assay, NIH3T3vSrc on rat tail ECM; assay type: cell-based, mouse; conditions: for ECM degradation: 1 mM GSH supplemented, or GPx and H2O2, vs untreated cells
Description: (§1) Gelatin (#G1393, Sigma) was first coupled to 5-carboxy-X-rhodamine succinimidyl ester (#C-6125, ThermoFisher Scientific). Sterile coverslips were coated with gelatin for 20 min, then fixed with 0.5% glutaraldehyde (#15960, Electron Microscopy Sciences) for 40 min. After washing, a layer of 0.5 mg/ml type I collagen (#354236 rat tail, Corning) was coated onto these gelatin coverslips and incubated 4 h at 37° C. before cell seeding. Cells were incubated overnight before fixation and staining. At least 20 images were acquired for each condition, experiments were done in 3 biological replicates. The area of degradation was quantified using ImageJ and normalized to the number of nuclei in each image. To study the involvement of GSH in collagen disulfide bond reduction, cells were seeded on red gelatin and collagen I coated coverslips to proceed to ECM degradation assay. Cells were incubated 2 h to adhere and where then incubated with 1 mM L-gluthatione reduced (GSH #4251, Sigma Aldrich) overnight before fixation. For the opposite experiment, cells were seeded into red gelatin and collagen I coated coverslips, incubated 2 h to adhere and treated with 10 mg GPx1 (SRP-8010, Sigma Aldrich) and H2O2 every 30 min for 6 hours before fixation. ECM degradation quantification was performed as described above. siRNA oligonucleotides were purchased from Dharmacon. Endogenous Cnx was depleted by 2 rounds of siRNA transfection. Briefly, cells were first treated by reverse transfection with 25 nM of control siRNA ([NT]) or siRNA against [NT]) using Lipofectamine RNAiMAX (ThermoFisher Scientific). The day after, cells were treated again by forward transfection with nM siRNA diluted in Opti-MEM medium (Gibco) and incubated 5 more days before analyzing. Since GALA stimulates ECM degradation and Cnx is present in the responsible subcellular structures, we next asked whether surface Cnx is involved in this activity. […] We quantified ECM degradative activity by measuring the loss of fluorescent gelatin using automated image analysis (FIG. 8C). […]

MMP14 = MMP14 localization in invadosome rosettes (immunofluorescence); assay type: cell-based; conditions: NIH3T3vSrc after Cnx depletion
Description: Cells were seeded on coverslips, at 70 000 cells per well in a 24-well plate (ThermoFisher Scientific) and incubated overnight. Cells were fixed with 4% paraformaldehyde (PFA) in Phosphate Buffered Saline (PBS, Gibco) for 10 min, rinsed 3 times with PBS and then permeabilized with 0.2% Triton X-100 for 10 min. Cells were incubated with primary antibodies (1/100 diluted in 2% FBS-PBS) for 1 h 30 at room temperature, rinsed 3 times with PBS and incubated with secondary antibodies (1/200 diluted in 2% FBS-PBS) for 40 min before being rinsed and mounted on microscope slides.
(§2) To better understand this Cnx requirement, we tested whether Cnx depletion affected invadosomes formation, which we measured in NIH3T3vSrc because of the abundance of invadosomes and ease of detection in these cells (FIG. 2E). Given the lack of effect, we hypothesized an effect on Matrix Metalloproteinases and measured MMP2, 9 and 14 abundance by western blot (FIG. 8F). We also measured MMPs activity in a cell lysate and MMP14 localization in invadosomes rosettes after Cnx depletion (FIG. 8G, FIG. 8H).

NIH3T3vSrc cells [2] = experiment: Cell-mediated ECM disulfide bond reduction (NEM / OX133 staining); assay type: cell-based, mouse; conditions: NIH3T3vSrc on rat tail ECM, GM6001 and NEM, 16 hours; Cnx depleted vs control cells
Source text: In the ER, the Cnx-ERp57 complex mediates the formation and isomerization of disulfide bonds in neo-synthesized proteins^40. To explain the surprising requirement of the same complex for matrix degradation, we hypothesized it could mediate the reduction of disulfide bonds in extracellular ECM fibers. To reveal disulfide bonds in ECM preparations, we used the reducing agent tris(2-carboxyethyl)phosphine (TCEP), followed by reaction with N-ethylmaleimide (NEM). […] To test whether disulfide bonds are present in liver ECM, we prepared decellularized mouse liver tissue. The decellularized matrix presented as a meshwork with a diamond-shaped pattern, the fibers staining for Collagen I, III, IV, and fibronectin (FIGS. 4B, FIG. 9A, FIG. 9B). […] We also tested the commercially-sourced liver porcine ECM and the rat tail connective tissue and obtained in both cases an abundant staining with OX133 after TECP/NEM treatment (FIG. 9C). This staining was entirely dependent on TCEP and NEM. In all cases, most of the OX133 signal colocalized with collagen fibers.
To test if cells are able to reduce these disulfide bonds, the actively degrading NIH3T3vSrc cells were sparsely seeded on rat tail ECM. The cells were treated with the MMP inhibitor GM6001 to prevent collagen degradation. NEM was then added to reveal reduced cysteines and after 16 hours, coverslips were fixed and labeled. […]

MMPs = experiment: FRET-based MMP activity assay on cell lysates; assay type: biochemical; conditions: MDA ER-G2 after Cnx depletion
Description: In order to quantify total MMP activity, we used a FRET-based MMP activity assay kit (ab112147), on cell lysates, according to the manufacturer's protocol. Fluorescence was read at 540 nm using a microplate reader (Tecan) every 5 min for 2 h.
as §2

NIH3T3vSrc cells [3] = experiment: Invadosome rosette formation after Cnx depletion; assay type: cell-based, mouse; conditions: siCnx vs siNT5
Description: siRNA oligonucleotides were purchased from Dharmacon. Endogenous Cnx was depleted by 2 rounds of siRNA transfection. Briefly, cells were first treated by reverse transfection with 25 nM of control siRNA (5′-UGGUUUACAUGUCGACUAA-3′) or siRNA against Cnx (5′-[…]-3′) using Lipofectamine RNAiMAX (ThermoFisher Scientific). The day after, cells were treated again by forward transfection with nM siRNA diluted in Opti-MEM medium (Gibco) and incubated 5 more days before analyzing.
as §2

MMP2, 9 and 14 = experiment: MMP protein level by western blot after Cnx depletion; assay type: cell-based; conditions: NIH3T3vSrc after Cnx depletion
Description: Cells were washed twice with ice-cold PBS, scraped in ice-cold RIPA lysis buffer (50 mM Tris, 200 mM NaCl, 0.5% NP-40, Complete and PhoStop inhibitor [Roche Applied Science]) and lysed for 30 min at 4° C. Lysates were then clarified by centrifugation at 13000 g for 10 min at 4° C. Lysate concentrations were determined using Bradford reagent (Bio-Rad). Lysates were boiled at 95° C. for 5 min and separated by SDS-PAGE electrophoresis using 4-12% Bis-Tris NuPage gels (Invitrogen) at 180V for 70 min. Samples were then transferred on nitrocellulose membranes using iBlot transfer system (Invitrogen) and blocked using 3% BSA dissolved in TBST (50 mM Tris, 150 mM NaCl and 0.1% Tween-20) for 1 h at room temperature. Membranes were then incubated with primary antibodies (1/1000 diluted in 3% BSA-TBST) overnight at 4° C. […]
as §2

MDA ER-G2 cells = experiment: ECM degradation assay, MDA ER-G2 on rat tail ECM; assay type: cell-based, human; conditions: for ECM degradation: MDA ER-G2, 1 mM GSH supplemented, or GPx and H2O2, vs untreated cells; for ECM degradation after ECM pre-treatment: ECM pre-treated before cell seeding
Description: as §1, with “image. To chemically reduce collagen disulfide bonds before cell seeding and ECM degradation assay, a 0.5 mg/ml type I collagen matrix was coated onto red gelatin coverslips and incubated 4 h at 37° C. for polymerization. Collagen was incubated with 2.5 mM TCEP (#64, 654-7, Sigma Aldrich) for 30 min at room temperature, rinsed 3 times with 1% BSA in PBS, and incubated with 5 mM N-ethylmaleimide (NEM #23030, ThermoFisher Scientific) for 30 min at room temperature. Coverslips were gently rinsed 3 more times with 1% BSA in PBS before cell seeding and ECM degradation assay.” for “image.”, “activity. To measure ECM degradation, we used a sandwich of fluorescently labeled gelatin overlaid with native ECM of different sources.” for “activity.”

5′-CAAGAGUGGUCCUAGGAGAUU-3′ [siCnx]
matrix degradation (NIH3T3vSrc cells [1]; siRNA depletion vs control siRNA (siNT5), listed as siRNA targeting Cnx): similarly reduced ECM degradation | MMP14 localization in invadosomes rosettes (MMP14): could not detect any difference | OX133 staining of ECM (reduced disulfide bonds) (NIH3T3vSrc cells [2]): significantly reduced | MMPs activity in a cell lysate (MMPs): could not detect any difference | rosette formation (number of rosettes per cell and percentage of cells making rosettes) (NIH3T3vSrc cells [3]): non significant | MMP2, 9 and 14 abundance by western blot (MMP2, 9 and 14): could not detect any difference

N[C@@H](CCC(=O)N[C@@H](CS)C(=O)NCC(=O)O)C(=O)O [GSH, L-gluthatione reduced]
ECM degradation (NIH3T3vSrc cells [1]): more efficient at ECM degradation | ECM degradation (MDA ER-G2 cells): more efficient at ECM degradation

Cl.O=C(O)CCP(CCC(=O)O)CCC(=O)O [TCEP, Tris(2-carboxyethyl)phosphine hydrochloride]
ECM degradation after ECM pre-treatment (MDA ER-G2 cells; MDA ER-G2 control cells): stimulatory effect on ECM degradation | ECM degradation after ECM pre-treatment (MDA ER-G2 cells; MDA ER-G2 depleted of Cnx or ERp57): completely reversed the inhibitory effect of Cnx depletion

B1: GPx: GSH peroxidase GPx1 (SRP-8010, Sigma Aldrich), given to cells together with H2O2 (protein, UniProt P00435 1-205, looked up)
Glutathione peroxidase 1: MCAAQRSAAALAAAAPRTVYAFSARPLAGGEPFNLSSLRGKVLLIENVASLUGTTVRDYTQMNDLQRRLGPRGLVVLGFPCNQFGHQENAKNEEILNCLKYVRPGGGFEPNFMLFEKCEVNGEKAHPLFAFLREVLPTPSDDATALMTDPKFITWSPVCRNDVSWNFEKFLVGPDGVPVRRYSRRFLTIDIEPDIETLLSQGASA
ECM degradation (NIH3T3vSrc cells [1]): less efficient ECM degradation | ECM degradation (MDA ER-G2 cells): less efficient ECM degradation
